Data taken from patent publication US6720346B2, “Thiazole benzamide derivatives and pharmaceutical compositions for inhibiting cell proliferation” (Agouron Pharmaceuticals, Inc., priority 2001, dated 2004).
Where a name gives a salt, the structure may show the parent alone.

Tests used:
[1] = test system: HCT-116 cell line; assay: Inhibition of cell growth, MTT tetrazolium salt assay; format: cell-based; conditions: for IC50: Homo sapiens, HCT-116, 120 h, MTT, three to five days
Procedure, shortened: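 Growth inhibition was read as MTT-formazan absorbance at 540 nm, after 4 h with 0.2 mg/mL MTT. Before that, HCT-116 cells had been exposed 3–5 days at 37 °C to compounds in 0.5% (v/v) DMSO, added 4 h after plating. 50% and 90% inhibitory concentrations were taken from semi-log concentration–inhibition plots versus vehicle controls.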

[2] = target: T1, CDK2/cyclin A (Homo sapiens, UniProt P24941); assay: Inhibition of CDK2/cyclin A retinoblastoma kinase activity (Ki; % inhibition); format: biochemical; conditions: for Ki: apparent Ki, CDK2/cyclin A, Rb substrate
T1 construct: made in house; host or cells: CDK2: insect cells (baculovirus); cyclin A: E. coli
Procedure, shortened: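 Radiometric filter assay of CDK2/proteolyzed cyclin A (baculovirus-expressed human CDK2, 10 or 19 nM) phosphorylating an Rb fragment with 25 μM [³²P/³³P]ATP in pH 7.4 HEPES, 2% DMSO, at 30 °C for 60 or 75 min under initial-rate conditions. Library compounds screened at 30 nM for % inhibition; apparent Ki from concentration series fit to competitive or tight-binding inhibition equations.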

[3] = target: T2, human CDK4/cyclin D3 (Homo sapiens, UniProt P11802); assay: Inhibition of CDK4/cyclin D retinoblastoma kinase activity (Ki; % inhibition); format: biochemical; conditions: for Ki: apparent Ki, CDK4/cyclin D3, Rb substrate
T2 construct: made in house; host or cells: insect cells co-infected with baculovirus vectors
Procedure, shortened: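 Insect-cell-expressed CDK4 with truncated cyclin D3 (1-264), 5 nM, phosphorylating His-tagged Rb fragment (386-928) with 25 μM [32/33P]ATP at pH 7.4, 30 °C, 20 min (60 min for tight binders). Filter capture, phosphorimager read; % inhibition at 30 nM compound, Ki from competitive or tight-binding fits.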

[4] = HCT-116 cells, 0.25 μM compound

T2 sequence (P11802 whole entry): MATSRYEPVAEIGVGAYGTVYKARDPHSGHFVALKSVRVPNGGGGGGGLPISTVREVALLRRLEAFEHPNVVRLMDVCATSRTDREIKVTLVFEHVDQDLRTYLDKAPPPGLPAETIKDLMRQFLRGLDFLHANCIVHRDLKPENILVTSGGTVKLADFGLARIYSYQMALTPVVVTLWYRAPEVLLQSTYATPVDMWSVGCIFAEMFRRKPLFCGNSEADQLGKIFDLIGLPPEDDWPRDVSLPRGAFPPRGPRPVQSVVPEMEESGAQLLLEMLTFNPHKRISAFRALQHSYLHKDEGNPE
T2 sequence (P30281 1-264 partner limits assumed): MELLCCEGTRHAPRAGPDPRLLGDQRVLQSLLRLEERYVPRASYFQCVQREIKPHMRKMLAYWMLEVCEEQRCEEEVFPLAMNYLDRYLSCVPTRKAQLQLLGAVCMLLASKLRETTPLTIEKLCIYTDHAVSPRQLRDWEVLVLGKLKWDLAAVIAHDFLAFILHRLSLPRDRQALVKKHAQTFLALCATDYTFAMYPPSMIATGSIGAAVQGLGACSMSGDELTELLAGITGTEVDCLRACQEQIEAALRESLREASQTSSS

| CDK2 % Inhibition at 0.03 μM ([2]; 0.03 μM compound) [%] | CDK4 % Inhibition at 0.03 μM ([3]; 0.03 μM compound) [%] | Structure (SMILES) | HCT-116 % Inhibition at 0.1 μM ([1]; HCT-116 cells, 0.1 μM compound) [%] | HCT-116 % Inhibition at 0.25 μM [1, 4] [%] | also measured |
| --- | --- | --- | --- | --- | --- |
| – | – | CC(CNC(=O)c1ccc(Nc2nc(N)c(C(=O)c3c(F)cccc3F)s2)cc1)N(C)C (stereo not drawn) [Example G92] | – | – | HCT-116 % Inhibition at 0.1 μM ([1]; HCT-116, at 0.1 μM): 85%; HCT-116 % Inhibition at 0.25 μM ([1]; HCT-116, at 0.25 μM): 98%; CDK2 % Inhibition at 0.03 μM ([2]; at 0.03 μM): −7%; CDK4 % Inhibition at 0.03 μM ([3]; at 0.03 μM): 10% |
| – | – | CC(C)[C@@H](CO)NC(=O)c1ccc(Nc2nc(N)c(C(=O)c3c(F)cccc3F)s2)cc1 [Example G152] | – | – | HCT-116 % Inhibition at 0.1 μM ([1]; HCT-116, at 0.1 μM): 5%; HCT-116 % Inhibition at 0.25 μM ([1]; HCT-116, at 0.25 μM): 53%; CDK2 % Inhibition at 0.03 μM ([2]; at 0.03 μM): 16%; CDK4 % Inhibition at 0.03 μM ([3]; at 0.03 μM): 7% |
| 2 | 45 | CC1CCCCN1CCCNC(=O)c1ccc(Nc2nc(N)c(C(=O)c3c(F)cccc3F)s2)cc1 (stereo not drawn) [Example G303] | 18 | 72 | – |
| −7 | 10 | CC(=O)N[C@@H]1CCN(C(=O)c2ccc(Nc3nc(N)c(C(=O)c4c(F)cccc4F)s3)cc2)C1 [Example G373] | 31 | 48 | – |
| 19 | 29 | Nc1nc(Nc2ccc(C(=O)Nc3ccc(CCO)cc3)cc2)sc1C(=O)c1c(F)cccc1F [Example G328] | 33 | 89 | – |
| – | – | C[C@H](CN(C)C)NC(=O)c1ccc(Nc2nc(N)c(C(=O)c3ccccc3F)s2)cc1 [Example A66, Trifluoroacetic Acid Salt] | – | – | IC50 [1]: 0.12 µM; Ki [2]: 0.018 µM; Ki [3]: 0.35 µM |
| – | – | Cc1ccncc1C(=O)c1sc(Nc2ccc(C(=O)NC[C@@H]3CCCN3C)cc2)nc1N [Example A59, 4-{4-Amino-5-[1-(4-methyl-pyridin-3-yl)methanoyl]-thiazol-2-ylamino}-N-(1-methyl-pyrrolidin-2S-ylmethyl)-benzamide Hydrochloride Salt] | – | – | IC50 [1]: 2.9 µM; Ki [2]: 0.83 µM; Ki [3]: 0.097 µM |
| – | – | CC(CCc1ccccc1)NC(=O)c1ccc(Nc2nc(N)c(C(=O)c3c(F)cccc3F)s2)cc1 (stereo not drawn) [Example G133] | – | – | HCT-116 % Inhibition at 0.1 μM ([1]; HCT-116, at 0.1 μM): 0%; HCT-116 % Inhibition at 0.25 μM ([1]; HCT-116, at 0.25 μM): 47%; CDK2 % Inhibition at 0.03 μM ([2]; at 0.03 μM): −6%; CDK4 % Inhibition at 0.03 μM ([3]; at 0.03 μM): 13% |
| 15 | 27 | CCN(CC)CCCC(C)NC(=O)c1ccc(Nc2nc(N)c(C(=O)c3c(F)cccc3F)s2)cc1 (stereo not drawn) [Example G239] | 21 | 50 | – |
| 32 | 27 | Nc1nc(Nc2ccc(C(=O)NCCc3c[nH]c4ccccc34)cc2)sc1C(=O)c1c(F)cccc1F [Example G271] | 8 | 49 | – |
| 10 | 19 | CCCCC(CO)NC(=O)c1ccc(Nc2nc(N)c(C(=O)c3c(F)cccc3F)s2)cc1 (stereo not drawn) [Example G329] | 9 | 56 | – |
| 16 | 28 | CCN(CC)C(=O)C1CCCN(C(=O)c2ccc(Nc3nc(N)c(C(=O)c4c(F)cccc4F)s3)cc2)C1 (stereo not drawn) [Example G224] | 10 | 53 | – |
| – | – | Nc1nc(Nc2ccc(C(=O)NC3CCN(Cc4ccccc4)CC3)cc2)sc1C(=O)c1c(F)cccc1F [Example G178] | – | – | HCT-116 % Inhibition at 0.1 μM ([1]; HCT-116, at 0.1 μM): 43%; HCT-116 % Inhibition at 0.25 μM ([1]; HCT-116, at 0.25 μM): 83%; CDK2 % Inhibition at 0.03 μM ([2]; at 0.03 μM): 20%; CDK4 % Inhibition at 0.03 μM ([3]; at 0.03 μM): 54% |
| – | – | Nc1nc(Nc2ccc(C(=O)NCC(O)CO)cc2)sc1C(=O)c1c(Cl)cccc1Cl (stereo not drawn) [Example B3, 4-[4-Amino-5-(2,6-dichloro-benzoyl)-thiazol-2-ylamino]-N-(2,3-dihydroxy-propyl)-benzamide] | – | – | IC50 [1]: 18 µM; Ki [2]: 0.066 µM; Ki [3]: 0.008 µM |
| – | – | Nc1nc(Nc2ccc(C(=O)N3CCN(C=O)CC3)cc2)sc1C(=O)c1c(F)cccc1F [Example G78] | – | – | HCT-116 % Inhibition at 0.25 μM ([1]; HCT-116, at 0.25 μM): 58%; CDK2 % Inhibition at 0.03 μM ([2]; at 0.03 μM): 11%; CDK4 % Inhibition at 0.03 μM ([3]; at 0.03 μM): 13% |
| −12 | 9 | CCCCN(CCCCO)C(=O)c1ccc(Nc2nc(N)c(C(=O)c3c(F)cccc3F)s2)cc1 [Example G340] | 28 | 40 | – |
| 10 | 21 | CCCN(CCO)C(=O)c1ccc(Nc2nc(N)c(C(=O)c3c(F)cccc3F)s2)cc1 [Example G233] | 16 | 48 | – |

| CDK2 % Inhibition at 0.03 μM ([2]; 0.03 μM compound) [%] | CDK4 % Inhibition at 0.03 μM ([3]; 0.03 μM compound) [%] | Structure (SMILES) | HCT-116 % Inhibition at 0.1 μM ([1]; HCT-116 cells, 0.1 μM compound) [%] | HCT-116 % Inhibition at 0.25 μM [1, 4] [%] | also measured |
| --- | --- | --- | --- | --- | --- |
| – | – | Nc1nc(Nc2ccc(C(=O)NCCCN3CCOCC3)cc2)sc1C(=O)c1c(F)cccc1F [Example G132] | – | – | HCT-116 % Inhibition at 0.1 μM ([1]; HCT-116, at 0.1 μM): 0%; HCT-116 % Inhibition at 0.25 μM ([1]; HCT-116, at 0.25 μM): 52%; CDK2 % Inhibition at 0.03 μM ([2]; at 0.03 μM): 9%; CDK4 % Inhibition at 0.03 μM ([3]; at 0.03 μM): 27% |
| 10 | 13 | C=CCNC(=O)c1ccc(Nc2nc(N)c(C(=O)c3c(F)cccc3F)s2)cc1 [Example G219] | 8 | 52 | – |
| −12 | 4 | CC(C)c1cccc(NC(=O)c2ccc(Nc3nc(N)c(C(=O)c4c(F)cccc4F)s3)cc2)c1 [Example G389] | 11 | 61 | – |
| – | – | CN1CCCC[C@H]1CNC(=O)c1ccc(Nc2nc(N)c(C(=O)c3c(F)cccc3F)s2)cc1 [Example A43, 4-[4-Amino-5-(2,6-difluoro-benzoyl)-thiazol-2-ylamino]-N-(1-methyl-piperidin-2S-yl-methyl)-benzamide] | – | – | IC50 [1]: 0.58 µM; Ki [2]: 0.109 µM; Ki [3]: 0.013 µM |
| – | – | COCCN(C)C(=O)c1ccc(Nc2nc(N)c(C(=O)c3c(F)cccc3F)s2)cc1 [Example G13] | – | – | HCT-116 % Inhibition at 0.25 μM ([1]; HCT-116, at 0.25 μM): 44%; CDK2 % Inhibition at 0.03 μM ([2]; at 0.03 μM): −16%; CDK4 % Inhibition at 0.03 μM ([3]; at 0.03 μM): 0% |
| – | – | CN(C)C1CCN(C(=O)c2ccc(Nc3nc(N)c(C(=O)c4c(F)cccc4F)s3)cc2)C1 (stereo not drawn) [Example G37] | – | – | HCT-116 % Inhibition at 0.25 μM ([1]; HCT-116, at 0.25 μM, 0.25 µM): 65%; CDK2 % Inhibition at 0.03 μM ([2]; at 0.03 μM): 11%; CDK4 % Inhibition at 0.03 μM ([3]; at 0.03 μM): 25% |
| – | – | CCCCN(CCO)C(=O)c1ccc(Nc2nc(N)c(C(=O)c3c(F)cccc3F)s2)cc1 [Example G4] | – | – | HCT-116 % Inhibition at 0.25 μM ([1]; HCT-116, at 0.25 μM): 53%; CDK2 % Inhibition at 0.03 μM ([2]; at 0.03 μM): −7%; CDK4 % Inhibition at 0.03 μM ([3]; at 0.03 μM): 4% |
| 14 | 19 | C=C(C)CNC(=O)c1ccc(Nc2nc(N)c(C(=O)c3c(F)cccc3F)s2)cc1 [Example G223] | 14 | 50 | – |
| – | – | C[C@@H](CN(C)C)NC(=O)c1ccc(Nc2nc(N)c(C(=O)c3c(F)cccc3F)s2)cc1 [Example A41] | – | – | IC50 [1]: 0.18 µM; Ki [2]: 0.23 µM; Ki [3]: 0.035 µM |
| 31 | 9 | Cc1cccc(CNC(=O)c2ccc(Nc3nc(N)c(C(=O)c4c(F)cccc4F)s3)cc2)c1 [Example G360] | 18 | 73 | – |
| 1 | 12 | Nc1nc(Nc2ccc(C(=O)NCCc3cccnc3)cc2)sc1C(=O)c1c(F)cccc1F [Example G343] | 27 | 71 | – |
| 12 | −2 | CCOC(CCCNC(=O)c1ccc(Nc2nc(N)c(C(=O)c3c(F)cccc3F)s2)cc1)OCC [Example G392] | 8 | 49 | – |
| 12 | 22 | Nc1nc(Nc2ccc(C(=O)NCCO)cc2)sc1C(=O)c1c(F)cccc1F [Example G326] | 11 | 13 | – |
| 11 | 11 | Nc1nc(Nc2ccc(C(=O)NC3CCC(O)CC3)cc2)sc1C(=O)c1c(F)cccc1F (stereo not drawn) [Example G346] | 15 | 52 | – |
| – | – | Nc1nc(Nc2ccc(C(=O)NC(CO)c3ccccc3)cc2)sc1C(=O)c1c(F)cccc1F (stereo not drawn) [Example G155] | – | – | HCT-116 % Inhibition at 0.1 μM ([1]; HCT-116, at 0.1 μM): 0%; HCT-116 % Inhibition at 0.25 μM ([1]; HCT-116, at 0.25 μM, 0.25 µM): 67%; CDK2 % Inhibition at 0.03 μM ([2]; at 0.03 μM): 32%; CDK4 % Inhibition at 0.03 μM ([3]; at 0.03 μM): 38% |
| −23 | −14 | CC(C)(C)C1CCC(NC(=O)c2ccc(Nc3nc(N)c(C(=O)c4c(F)cccc4F)s3)cc2)CC1 (stereo not drawn) [Example G267] | 24 | 44 | – |
| – | – | Nc1nc(Nc2ccc(C(=O)NCCN3CCOCC3)cc2)sc1C(=O)c1c(F)cccc1F [Example A1, 4-[4-Amino-5-(2,6-difluoro-benzoyl)-thiazol-2-ylamino]-N-(2-morpholin-4-yl-ethyl)-benzamide] | – | – | IC50 [1]: 0.75 µM; Ki [2]: 0.14 µM; Ki [3]: 0.027 µM |
